From patent US9260439B2, “Dihydropyrrolopyrimidine derivatives” (PFIZER INC., priority 2014, dated 2016)

Columns and labels:
[1] = target: truncated PI3Kα (p110α/iSH2 p85α) (Homo sapiens (Human), UniProt P42336); test: PI3KA_Act fluorescence polarization kinase assay (Ki); type: biochemical; conditions: 1 mM ATP
Method in brief: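 p110α/iSH2 p85α (0.5 nM) was reacted with 30 μM sonicated PIP2 in 50 mM HEPES pH 7.4, 150 mM NaCl, 5 mM MgCl2, 1 mM DTT and 0.05% CHAPS for 30 min at room temperature, then stopped with EDTA. PIP3 was detected by fluorescence polarization (GST-Grp1 PH domain/TAMRA-PIP3), and Ki came from a Morrison tight-binding fit.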

[2] = target: full-length PI3Kα (full-length p110α/p85α) (Homo sapiens (Human), UniProt P42336); test: PI3KA_FL fluorescence polarization kinase assay (Ki); type: biochemical; conditions: 41 μM ATP
full-length PI3Kα (full-length p110α/p85α), sequence (P42336 whole entry): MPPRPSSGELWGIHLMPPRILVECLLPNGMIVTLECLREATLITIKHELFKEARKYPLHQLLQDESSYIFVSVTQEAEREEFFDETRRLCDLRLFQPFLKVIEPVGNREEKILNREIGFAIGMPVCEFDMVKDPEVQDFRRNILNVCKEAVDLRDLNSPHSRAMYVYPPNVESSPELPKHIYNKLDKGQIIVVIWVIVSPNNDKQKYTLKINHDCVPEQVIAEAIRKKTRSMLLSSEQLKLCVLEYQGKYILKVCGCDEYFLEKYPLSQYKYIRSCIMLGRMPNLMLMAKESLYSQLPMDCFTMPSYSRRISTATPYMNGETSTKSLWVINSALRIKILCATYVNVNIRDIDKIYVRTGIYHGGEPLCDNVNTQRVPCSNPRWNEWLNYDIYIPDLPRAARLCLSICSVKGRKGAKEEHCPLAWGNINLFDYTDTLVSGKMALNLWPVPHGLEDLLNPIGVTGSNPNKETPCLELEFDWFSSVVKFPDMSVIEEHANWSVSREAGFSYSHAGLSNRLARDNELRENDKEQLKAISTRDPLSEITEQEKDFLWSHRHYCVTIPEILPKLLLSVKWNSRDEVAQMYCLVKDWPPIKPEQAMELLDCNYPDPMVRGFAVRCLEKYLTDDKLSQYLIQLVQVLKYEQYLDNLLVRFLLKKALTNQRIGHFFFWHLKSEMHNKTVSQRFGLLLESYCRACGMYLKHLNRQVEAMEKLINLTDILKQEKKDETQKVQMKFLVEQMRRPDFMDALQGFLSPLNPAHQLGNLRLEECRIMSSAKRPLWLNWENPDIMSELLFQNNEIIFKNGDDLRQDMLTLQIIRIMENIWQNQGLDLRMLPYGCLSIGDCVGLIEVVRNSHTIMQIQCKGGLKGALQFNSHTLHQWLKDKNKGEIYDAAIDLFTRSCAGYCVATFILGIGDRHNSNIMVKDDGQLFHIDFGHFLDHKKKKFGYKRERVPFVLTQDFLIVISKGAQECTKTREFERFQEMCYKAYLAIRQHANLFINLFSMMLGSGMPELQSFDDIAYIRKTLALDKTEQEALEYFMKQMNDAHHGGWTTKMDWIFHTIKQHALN
full-length PI3Kα (full-length p110α/p85α), sequence (P27986 whole entry partner): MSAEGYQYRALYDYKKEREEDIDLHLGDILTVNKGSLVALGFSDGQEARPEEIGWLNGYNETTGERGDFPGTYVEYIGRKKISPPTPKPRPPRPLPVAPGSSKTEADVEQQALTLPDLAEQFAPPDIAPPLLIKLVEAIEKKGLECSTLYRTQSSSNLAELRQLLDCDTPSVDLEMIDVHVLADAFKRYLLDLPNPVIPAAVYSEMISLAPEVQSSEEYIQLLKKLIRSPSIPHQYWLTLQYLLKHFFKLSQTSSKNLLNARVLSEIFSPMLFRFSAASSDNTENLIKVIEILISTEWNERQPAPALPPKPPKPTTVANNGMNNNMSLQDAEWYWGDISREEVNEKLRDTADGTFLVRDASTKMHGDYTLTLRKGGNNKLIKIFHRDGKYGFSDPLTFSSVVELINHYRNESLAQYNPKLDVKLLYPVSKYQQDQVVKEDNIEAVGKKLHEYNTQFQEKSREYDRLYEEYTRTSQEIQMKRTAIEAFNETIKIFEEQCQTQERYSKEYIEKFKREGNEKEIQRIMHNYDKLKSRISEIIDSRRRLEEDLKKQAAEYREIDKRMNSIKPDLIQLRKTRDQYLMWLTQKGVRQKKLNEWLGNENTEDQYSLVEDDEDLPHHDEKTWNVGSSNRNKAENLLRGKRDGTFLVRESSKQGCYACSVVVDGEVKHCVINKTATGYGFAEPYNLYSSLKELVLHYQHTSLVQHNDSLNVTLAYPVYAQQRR

truncated PI3Kα (p110α/iSH2 p85α), sequence (P42336 whole entry, the tested form may be a part): as the sequence (P42336 whole entry) above

| SMILES | PI3KA_Act Ki [1] | PI3KA_FL Ki (nM) [2] | PI3KA_FL Ki [2] |
| --- | --- | --- | --- |
| C[C@H]1COCCN1c1nc(-c2cnc(N)nc2)c2c(n1)N([C@H]1CCN(S(N)(=O)=O)C1)CC2 [Example 100] | 132 pM | ≦0.229 nM |  |
| CCS(=O)(=O)N1CC[C@H](N2CCc3c(-c4cnc(N)nc4)nc(N4CCOCC4)nc32)C1 [Example 101] | 93 pM | ≦0.229 nM |  |
| Nc1ncc(-c2nc(N3CCOCC3)nc3c2CCN3[C@H]2CCN(S(=O)(=O)C3CC3)C2)cn1 [Example 102] | 67 pM | ≦0.229 nM |  |
| CNS(=O)(=O)O[C@H]1C[C@@H](N2CCc3c(-c4cnc(N)nc4)nc(N4CCOCC4)nc32)C1 [Example 104] | 79 pM | ≦0.229 nM |  |
| CS(=O)(=O)N[C@H]1C[C@H](N2CCc3c(-c4cnc(N)nc4)nc(N4CCOCC4)nc32)C1 [Example 105] | 157 pM |  | 285 pM |
| CC(C)S(=O)(=O)N1CC[C@H](N2CCc3c(-c4cnc(N)nc4)nc(N4CCOCC4)nc32)C1 [Example 106] | 64 pM | ≦0.229 nM |  |
| CCS(=O)(=O)N1CC(N2CCc3c(-c4cnc(N)nc4)nc(N4CCOCC4)nc32)C1 [Example 108] | 122 pM | ≦0.229 nM |  |
| Nc1ncc(-c2nc(N3CCOCC3)nc3c2CCN3C2CN(S(=O)(=O)C3CC3)C2)cn1 [Example 109] | 118 pM | ≦0.229 nM |  |
| CC(C)S(=O)(=O)N1CC[C@@H](N2CCc3c(-c4cnc(N)nc4)nc(N4CCOCC4)nc32)C1 [Example 111] | 151 pM | ≦0.229 nM |  |
| C[C@H]1COCCN1c1nc(-c2cnc(N)nc2)c2c(n1)N(C1CN(S(C)(=O)=O)C1)CC2 [Example 113] | 289 pM | ≦0.229 nM |  |
| CCS(=O)(=O)N1CC(N2CCc3c(-c4cnc(N)nc4)nc(N4CCOC[C@@H]4C)nc32)C1 [Example 115] | 105 pM | ≦0.229 nM |  |
| CNS(=O)(=O)N1C[C@@H](N2CCc3c(-c4cnc(N)nc4)nc(N4CCOC[C@@H]4C)nc32)[C@H](OC)C1 [Example 117] | 179 pM |  | 256 pM |
| C[C@H]1COCCN1c1nc(-c2cnc(N)nc2)c2c(n1)N(C1CN(S(=O)(=O)C3CC3)C1)CC2 [Example 118] | 30 pM | ≦0.229 nM |  |
| CCS(=O)(=O)N1CC[C@H](N2CCc3c(-c4cnc(N)nc4)nc(N4CCOC[C@@H]4C)nc32)C1 [Example 119] | 59 pM | ≦0.229 nM |  |
| C[C@H]1COCCN1c1nc(-c2cnc(N)nc2)c2c(n1)N(C1CN(S(=O)(=O)N(C)C)C1)CC2 [Example 120] | 30 pM | ≦0.229 nM |  |
| C[C@H]1COCCN1c1nc(-c2cnc(N)nc2)c2c(n1)N([C@H]1CCN(S(=O)(=O)C3CC3)C1)CC2 [Example 121] | 56 pM | ≦0.229 nM |  |
| CNS(=O)(=O)N1CC(N2CCc3c(-c4cnc(N)nc4)nc(N4CCOC[C@@H]4C)nc32)C1 [Example 122] | 64 pM | ≦0.229 nM |  |
| COC(=O)N1CC[C@H](N2CCc3c(-c4cnc(N)nc4)nc(N4CCOC[C@@H]4C)nc32)C1 [Example 123] | 69 pM | ≦0.229 nM |  |
| CCOC(=O)N1CC[C@H](N2CCc3c(-c4cnc(N)nc4)nc(N4CCOC[C@@H]4C)nc32)C1 [Example 125] | 87 pM | ≦0.229 nM |  |
| C[C@H]1COCCN1c1nc(-c2cnc(N)nc2)c2c(n1)N(C1CN(S(N)(=O)=O)C1)CC2 [Example 126] | 219 pM | ≦0.229 nM |  |
| CNS(=O)(=O)N1C[C@@H](O)[C@H](N2CCc3c(-c4cnc(N)nc4)nc(N4CCOC[C@@H]4C)nc32)C1 [Example 128] | 126 pM | ≦0.229 nM |  |
| CC(C)S(=O)(=O)N1CC[C@H](N2CCc3c(-c4cnc(N)nc4)nc(N4CCOC[C@@H]4C)nc32)C1 [Example 131] | 44 pM | ≦0.229 nM |  |
| CC(C)(C)N1CCc2c(-c3cnc(N)nc3)nc(N3CCOCC3)nc21 [Example 132] | 150 pM | ≦0.229 nM |  |
| CC(=O)N1CC(OC(=O)N2CC[C@@H](N3CCc4c(-c5cnc(N)nc5)nc(N5CCOC[C@@H]5C)nc43)C2)C1 [Example 136] | 99 pM | ≦0.229 nM |  |
